# Laboratory results as given in patent publication US10709705B2, “Aminopyrimidines as ALK inhibitors” (THE REGENTS OF THE UNIVERSITY OF MICHIGAN, priority 2016, dated 2020).
# pIC50: −log10 of the molar value. Like-named read-outs stand apart in the source and are kept apart here.
# What was measured:
# [1] = biological target: T1, wild-type human ALK protein (cytoplasmic domain, amino acid 1058-1620) (Homo sapiens, UniProt Q9UM73); experiment: Wild-type ALK kinase inhibition, Lance TR-FRET assay; format: biochemical
# T1 construct: The cytoplasmic domain (amino acid 1058-1620) of wild-type human ALK protein; purchased Carna Biosciences, Inc (Japan)
# Method: The cytoplasmic domain (amino acid 1058-1620) of wild-type human ALK protein expressed as N-terminal GST-fusion protein was purchased from Carna Biosciences, Inc (Japan). Mutated ALK proteins were expressed in SF9 insect cells with N-terminal tags cleaved after purification. Kinase activities of all enzymes were assessed using a Lance® TR-FRET assay kit from Perkin Elmer Life Sciences (Waltham, Mass.). 2.5 μL of compound solution and 5 μL of protein solution were added into a black low volume 384 well microtiter plate which was incubated for 30 minutes with gentle shaking at room temperature, followed by adding 2.5 μL of fluorescently labeled peptide substrate (ULight™-IRS-1 (Tyr983) Peptide) and ATP mixture solution. The kinase reaction was performed in 50 mM HEPES (pH 7.5) with 1 mM EGTA, 1 mM MgCl2, and 2 mM DTT, 0.01% Tween-20 added right before the assay. Final concentrations of ATP, substrates, and DMSO were 100 μM, 20 nM, and 0.5%, respectively. […] Final ALK concentrations were 1 nM, 1 nM, InM, 128 nM, 2 nM, and 4 nM for wild-type, F1174L, L1196M, S1206Y, G1269A, and G1202R, respectively. The reaction was allowed to perform for 90 minutes in dark with gentle shaking at room temperature after which 10 μL of 20 mM EDTA and 2 nM Eu-W1024 anti-phosphotyrosine antibody (PT66) mixture solution in the detection buffer from the manufacturer was added to terminate the reaction and detect the phosphorylation of the peptide substrate. The final mixture was incubated in the dark for 1 hour before the plate was read on a Tecan Infinite M-1000 multi-mode plate reader (Tecan, Durham N.C.) with an excitation wavelength of 320 nm. Emission intensities were measured at both 620 and 665 nm with the intensity ratio between 665 and 620 nm corresponding to the peptide substrate phosphorylation. IC50 values of inhibitors were obtained by fitting the ratio of 665/620 nm vs inhibitor concentrations in a sigmoidal dose-response curve (variable slope) with a non-linear regression.
# ALK S1206Y = biological target: T2, ALK S1206Y (Homo sapiens, UniProt Q9UM73, S1206Y); experiment: Mutant ALK kinase inhibition, Lance TR-FRET, S1206Y; format: biochemical; settings: Table 5; ATP 100 μM
# T2 construct: made in house; host or cells: SF9 insect cells
# Method: The cytoplasmic domain (amino acid 1058-1620) of wild-type human ALK protein expressed as N-terminal GST-fusion protein was purchased from Carna Biosciences, Inc (Japan). Mutated ALK proteins were expressed in SF9 insect cells with N-terminal tags cleaved after purification. Kinase activities of all enzymes were assessed using a Lance® TR-FRET assay kit from Perkin Elmer Life Sciences (Waltham, Mass.). 2.5 μL of compound solution and 5 μL of protein solution were added into a black low volume 384 well microtiter plate which was incubated for 30 minutes with gentle shaking at room temperature, followed by adding 2.5 μL of fluorescently labeled peptide substrate (ULight™-IRS-1 (Tyr983) Peptide) and ATP mixture solution. The kinase reaction was performed in 50 mM HEPES (pH 7.5) with 1 mM EGTA, 1 mM MgCl2, and 2 mM DTT, 0.01% Tween-20 added right before the assay. Final concentrations of ATP, substrates, and DMSO were 100 μM, 20 nM, and 0.5%, respectively. […] The final mixture was incubated in the dark for 1 hour before the plate was read on a Tecan Infinite M-1000 multi-mode plate reader (Tecan, Durham N.C.) with an excitation wavelength of 320 nm. Emission intensities were measured at both 620 and 665 nm with the intensity ratio between 665 and 620 nm corresponding to the peptide substrate phosphorylation. […]
# [2] = Pharmacokinetics in SD rats; format: in vivo; settings: Table 8 (SD rats); for AUC0-t (ng · h/mL) PO / AUC0-∞ (ng · h/mL) PO / Cmax(ng/mL) PO / Tmax (h) PO / t1/2 (h) PO: PO 10 mg/kg, 10 mg/kg
# Method: (§1) Routine pharmacokinetics studies were performed for Cpd. No. 5 in SD rats and beagle dogs.
# LTK = biological target: T3, LTK (Homo sapiens, UniProt P29376); experiment: KINOMEscan kinase panel, LTK; format: binding
# T3 construct: purchased LeadHunter Discovery Services (currently DiscoverX Corporation), KINOMEscan screening service
# Description: (§2) Cpd. No. 5 was screened for its activity against a panel of human kinases using the KINOMEscan™ screening platform from LeadHunter Discovery Services (currently DiscoverX Corporation (Fremont, Calif. 94538, United States). See Table 7.
# [3] = test system: Kappas-299 cells (NPM-ALK); experiment: Cell growth inhibition assay (WST-8), Kappas-299; format: cell-based; settings: read-out: Kappas-299 (nM) (NPM-ALK), 50% of cell growth inhibition (IC50), WST-8, versus DMSO control
# Method: H3122 and Kappas-299 cells were purchased from American Type Culture Collection (Manassas, Va., USA) and were used within 2 months after initiating from original stocks. All cell lines were cultured as recommended. For cell growth inhibition assay, cells were treated with different concentrations of the tested compounds, diluted from stock to culture media containing a 0.2% DMSO as the final concentration. Cell viability was determined using the WST-8 cell proliferation assay kit (Dojindo Molecular Technologies) according to manufacturer's instructions. Three independent experiments in triplicates were performed.
# INSR = biological target: T4, INSR (Homo sapiens, UniProt P06213); experiment: KINOMEscan kinase panel, INSR; format: binding
# T4 construct: purchased LeadHunter Discovery Services (currently DiscoverX Corporation), KINOMEscan screening service
# Description: as §2
# [4] = Pharmacokinetics in beagle dogs; format: in vivo; settings: Table 9 (beagle dogs)
# Method: as §1
# ALK V1180L = ALK V1180L (Homo sapiens, UniProt Q9UM73, V1180L); experiment: Cell based assay, ALK V1180L; set-up: key: + = active; −− = inactive; settings: Table 5
# ALK G1202R = ALK G1202R (Homo sapiens, UniProt Q9UM73, G1202R); experiment: Mutant ALK kinase inhibition, Lance TR-FRET, G1202R; format: biochemical
# Method: Mutated ALK proteins were expressed in SF9 insect cells with N-terminal tags cleaved after purification. […] The kinase reaction was performed in 50 mM HEPES (pH 7.5) with 1 mM EGTA, 1 mM MgCl2, and 2 mM DTT, 0.01% Tween-20 added right before the assay. […] The final mixture was incubated in the dark for 1 hour before the plate was read on a Tecan Infinite M-1000 multi-mode plate reader (Tecan, Durham N.C.) with an excitation wavelength of 320 nm.
# [5] = Sprague-Dawley, rat, in vivo, iv, 1 mg/kg, IV 1 mg/kg
# [6] = listed as Cpd. No. 5 (solution)
# [7] = listed as Cpd. No. 5 (suspension)
# T1 sequence (Q9UM73 1058-1620): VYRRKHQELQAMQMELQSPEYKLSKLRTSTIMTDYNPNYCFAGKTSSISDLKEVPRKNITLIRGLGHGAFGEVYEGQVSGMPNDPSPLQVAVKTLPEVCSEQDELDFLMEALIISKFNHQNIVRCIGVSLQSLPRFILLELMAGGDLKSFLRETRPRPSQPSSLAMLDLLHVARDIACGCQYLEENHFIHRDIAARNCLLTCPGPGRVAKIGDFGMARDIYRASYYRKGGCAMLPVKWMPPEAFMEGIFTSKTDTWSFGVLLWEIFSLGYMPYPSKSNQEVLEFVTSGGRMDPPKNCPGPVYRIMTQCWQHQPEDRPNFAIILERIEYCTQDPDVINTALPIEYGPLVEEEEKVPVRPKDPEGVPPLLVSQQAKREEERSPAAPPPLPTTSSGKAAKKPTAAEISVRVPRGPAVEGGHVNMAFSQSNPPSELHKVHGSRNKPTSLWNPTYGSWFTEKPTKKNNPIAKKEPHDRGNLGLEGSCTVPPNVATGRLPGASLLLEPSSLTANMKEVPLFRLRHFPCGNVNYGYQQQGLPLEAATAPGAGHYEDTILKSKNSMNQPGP
# Chain of ALK G1202R (Q9UM73 19-1620 G1202R): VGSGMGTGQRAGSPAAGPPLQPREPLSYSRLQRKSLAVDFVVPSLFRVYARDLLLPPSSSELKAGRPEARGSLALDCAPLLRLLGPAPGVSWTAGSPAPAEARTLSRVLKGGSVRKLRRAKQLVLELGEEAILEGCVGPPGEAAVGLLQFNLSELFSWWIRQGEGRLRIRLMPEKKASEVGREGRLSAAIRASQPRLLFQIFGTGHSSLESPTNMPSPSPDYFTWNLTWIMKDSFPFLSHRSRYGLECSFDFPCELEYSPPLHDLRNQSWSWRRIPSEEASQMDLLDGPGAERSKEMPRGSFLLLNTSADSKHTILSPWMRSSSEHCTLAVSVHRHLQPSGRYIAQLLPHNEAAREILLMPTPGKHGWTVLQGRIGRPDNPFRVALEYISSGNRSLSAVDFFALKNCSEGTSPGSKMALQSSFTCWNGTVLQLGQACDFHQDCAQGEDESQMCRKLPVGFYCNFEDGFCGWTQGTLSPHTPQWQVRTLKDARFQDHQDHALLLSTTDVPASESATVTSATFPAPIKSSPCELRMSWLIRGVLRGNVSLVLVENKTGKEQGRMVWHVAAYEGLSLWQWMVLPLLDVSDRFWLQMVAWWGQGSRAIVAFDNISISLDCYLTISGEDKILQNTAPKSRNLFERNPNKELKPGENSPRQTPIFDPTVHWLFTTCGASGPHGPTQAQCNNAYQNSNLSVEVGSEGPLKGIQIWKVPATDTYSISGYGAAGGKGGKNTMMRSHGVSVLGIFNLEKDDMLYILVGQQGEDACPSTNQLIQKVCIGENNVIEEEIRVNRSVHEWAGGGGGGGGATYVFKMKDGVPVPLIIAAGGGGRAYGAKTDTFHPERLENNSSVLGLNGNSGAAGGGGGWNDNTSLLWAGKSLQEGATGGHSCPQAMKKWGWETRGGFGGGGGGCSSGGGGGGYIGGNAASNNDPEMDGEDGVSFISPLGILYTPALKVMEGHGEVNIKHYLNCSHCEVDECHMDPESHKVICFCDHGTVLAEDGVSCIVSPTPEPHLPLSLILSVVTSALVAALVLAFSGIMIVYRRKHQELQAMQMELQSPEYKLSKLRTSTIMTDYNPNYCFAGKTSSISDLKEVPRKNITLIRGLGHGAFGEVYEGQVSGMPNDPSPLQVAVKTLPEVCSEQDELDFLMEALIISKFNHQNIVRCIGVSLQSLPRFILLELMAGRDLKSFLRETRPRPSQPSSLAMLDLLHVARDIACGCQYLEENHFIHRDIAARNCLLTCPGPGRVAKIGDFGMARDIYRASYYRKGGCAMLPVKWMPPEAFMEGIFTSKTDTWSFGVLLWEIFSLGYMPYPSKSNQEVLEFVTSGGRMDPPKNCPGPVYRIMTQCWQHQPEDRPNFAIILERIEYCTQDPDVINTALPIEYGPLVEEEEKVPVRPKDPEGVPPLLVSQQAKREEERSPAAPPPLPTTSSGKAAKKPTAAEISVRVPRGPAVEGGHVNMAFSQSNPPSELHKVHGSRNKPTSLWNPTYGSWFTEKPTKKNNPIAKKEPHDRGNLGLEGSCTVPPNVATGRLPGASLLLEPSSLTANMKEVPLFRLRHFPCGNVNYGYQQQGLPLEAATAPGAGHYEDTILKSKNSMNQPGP
# T4 sequence (P06213 28-1382): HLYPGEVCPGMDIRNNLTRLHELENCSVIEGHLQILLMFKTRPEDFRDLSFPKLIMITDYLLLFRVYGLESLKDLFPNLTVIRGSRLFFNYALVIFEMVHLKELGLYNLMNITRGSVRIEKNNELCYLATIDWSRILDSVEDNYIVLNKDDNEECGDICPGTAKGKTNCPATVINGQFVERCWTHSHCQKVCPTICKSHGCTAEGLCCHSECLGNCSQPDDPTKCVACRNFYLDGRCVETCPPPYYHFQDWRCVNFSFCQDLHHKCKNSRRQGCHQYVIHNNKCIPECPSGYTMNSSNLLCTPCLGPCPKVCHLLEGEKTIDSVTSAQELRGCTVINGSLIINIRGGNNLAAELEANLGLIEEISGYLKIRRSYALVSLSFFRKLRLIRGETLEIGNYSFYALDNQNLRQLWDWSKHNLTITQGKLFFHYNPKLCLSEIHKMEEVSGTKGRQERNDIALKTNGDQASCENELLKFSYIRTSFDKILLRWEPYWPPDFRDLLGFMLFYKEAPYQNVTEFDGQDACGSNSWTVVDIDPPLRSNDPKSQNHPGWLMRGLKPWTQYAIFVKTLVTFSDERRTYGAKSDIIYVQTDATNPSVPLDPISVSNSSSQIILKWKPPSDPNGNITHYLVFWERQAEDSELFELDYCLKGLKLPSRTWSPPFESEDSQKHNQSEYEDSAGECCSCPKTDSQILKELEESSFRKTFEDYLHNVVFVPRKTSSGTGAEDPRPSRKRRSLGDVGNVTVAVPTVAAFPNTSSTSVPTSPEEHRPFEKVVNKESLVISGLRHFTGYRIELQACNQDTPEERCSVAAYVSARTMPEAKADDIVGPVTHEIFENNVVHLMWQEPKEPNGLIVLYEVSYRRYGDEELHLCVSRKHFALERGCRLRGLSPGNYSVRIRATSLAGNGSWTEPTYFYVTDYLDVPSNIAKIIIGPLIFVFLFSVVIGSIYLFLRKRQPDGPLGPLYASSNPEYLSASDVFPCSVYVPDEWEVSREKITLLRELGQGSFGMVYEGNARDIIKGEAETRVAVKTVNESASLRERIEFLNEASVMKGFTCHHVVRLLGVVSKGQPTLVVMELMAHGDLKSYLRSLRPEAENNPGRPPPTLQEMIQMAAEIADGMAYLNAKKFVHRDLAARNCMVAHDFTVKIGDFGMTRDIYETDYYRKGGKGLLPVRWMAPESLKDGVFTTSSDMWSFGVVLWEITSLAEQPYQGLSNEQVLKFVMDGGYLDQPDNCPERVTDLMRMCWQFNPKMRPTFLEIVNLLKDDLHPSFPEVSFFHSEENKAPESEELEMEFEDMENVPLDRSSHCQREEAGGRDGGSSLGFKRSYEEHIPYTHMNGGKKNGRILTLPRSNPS
# T2 sequence (Q9UM73 19-1620 S1206Y): as the sequence (Q9UM73 19-1620 G1202R) above, with R1184G, S1188Y counted along it
# Chain of ALK V1180L (Q9UM73 19-1620 V1180L): as the sequence (Q9UM73 19-1620 G1202R) above, with V1162L, R1184G counted along it
# T3 sequence (P29376 17-864): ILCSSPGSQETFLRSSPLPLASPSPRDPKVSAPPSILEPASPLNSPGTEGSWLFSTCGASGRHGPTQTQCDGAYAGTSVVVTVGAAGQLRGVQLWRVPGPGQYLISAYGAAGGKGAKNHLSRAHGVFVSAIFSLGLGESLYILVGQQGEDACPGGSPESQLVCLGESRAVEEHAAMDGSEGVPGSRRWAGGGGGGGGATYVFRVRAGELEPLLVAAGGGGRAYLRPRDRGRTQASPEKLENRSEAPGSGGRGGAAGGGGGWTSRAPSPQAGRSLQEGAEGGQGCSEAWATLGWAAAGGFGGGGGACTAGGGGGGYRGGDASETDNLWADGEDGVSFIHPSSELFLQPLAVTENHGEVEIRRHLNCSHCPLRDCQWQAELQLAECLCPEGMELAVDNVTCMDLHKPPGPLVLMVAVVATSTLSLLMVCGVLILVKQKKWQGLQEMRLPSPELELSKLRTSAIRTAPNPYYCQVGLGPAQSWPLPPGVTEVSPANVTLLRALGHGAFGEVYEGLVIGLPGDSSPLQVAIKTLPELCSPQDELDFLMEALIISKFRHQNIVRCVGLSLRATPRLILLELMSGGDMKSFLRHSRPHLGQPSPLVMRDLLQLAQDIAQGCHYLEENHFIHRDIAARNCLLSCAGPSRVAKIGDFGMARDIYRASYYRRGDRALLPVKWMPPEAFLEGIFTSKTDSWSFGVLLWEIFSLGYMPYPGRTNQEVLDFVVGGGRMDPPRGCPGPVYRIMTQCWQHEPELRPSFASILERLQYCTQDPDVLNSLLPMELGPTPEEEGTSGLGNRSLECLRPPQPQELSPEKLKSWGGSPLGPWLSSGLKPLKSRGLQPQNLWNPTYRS
structure (smiles),measurement,setting,value
"Cc1cc(Nc2ncc(Cl)c(Nc3ccccc3S(=O)(=O)C(C)C)n2)c(OC(C)C)cc1C1=CCN(C2CCOCC2)CC1 [Cpd. No. 5, 5-chloro-N2-(2-isopropoxy-5-methyl-4-(1-(tetrahydro-2H-pyran-4-yl)-1,2,3,6-tetrahydropyridin-4-yl)phenyl)-N4-(2-(isopropylsulfonyl)phenyl)pyrimidine-2,4-diamine]",pIC50,"[1]; Table 4, target not given, Cpd. No. 5 value equals WT ALK IC50 of Table 5, read-out: Inhibitory activity",9.07
same,IC50,"[1]; Table 5, ATP 100 μM, read-out: IC50 (nM), WT",0.85 nM
same,IC50,ALK S1206Y,1.3 nM
same,Cmax,[2]; [5],234 ng/mL
same,Tmax,[2]; [5],4.98 min
same,AUC(0-t),"[2]; Sprague-Dawley, rat, in vivo, iv, 1 mg/kg, IV 1 mg/kg, read-out: AUC0-t (ng · h/mL) IV",506 ng·h/mL
same,AUC(0-inf),"[2]; Sprague-Dawley, rat, in vivo, iv, 1 mg/kg, IV 1 mg/kg, read-out: AUC0-∞ (ng · h/mL) IV",576 ng·h/mL
same,half-life,"[2]; Sprague-Dawley, rat, in vivo, iv, 1 mg/kg, IV 1 mg/kg, read-out: t1/2 (h) IV (converted)",3.94 h
same,MRT inf,"[2]; Sprague-Dawley, rat, in vivo, IV 1 mg/kg",4.54 h
same,clearance,"[2]; Sprague-Dawley, rat, in vivo, IV 1 mg/kg, read-out: CL (iv) (converted)",29.2 mL/min/kg
same,Vd,"[2]; Sprague-Dawley, rat, in vivo, IV 1 mg/kg, read-out: Vss (iv)",7.97 L/kg
same,F(AUC0-t),"[2]; PO 10 mg/kg vs IV 1 mg/kg, solution",31.1%
same,AUC0-t (ng · h/mL) PO,[2]; [6],1759 ng·h/mL
same,AUC0-∞ (ng · h/mL) PO,[2]; [6],1788 ng·h/mL
same,Cmax(ng/mL) PO,[2]; [6],153 ng/mL
same,Tmax (h) PO,[2]; [6],2.67 h
same,t1/2 (h) PO,[2]; [6],3.93 h
same,AUC0-t (ng · h/mL) PO,[2]; [7],719 ng·h/mL
same,AUC0-∞ (ng · h/mL) PO,[2]; [7],733 ng·h/mL
same,Cmax(ng/mL) PO,[2]; [7],75.9 ng/mL
same,Tmax (h) PO,[2]; [7],3.67 h
same,t1/2 (h) PO,[2]; [7],4.05 h
same,Kd,LTK,0.62 nM
same,IC50,[3],13 nM
same,Kd,INSR,54 nM
same,F(AUC0-t),[4]; PO 5 mg/kg vs IV 1 mg/kg,33.3%
same,MRT inf,"[4]; dog, in vivo, IV 1 mg/kg",22.1 h
same,AUC(0-t),"[4]; dog, in vivo, IV 1 mg/kg, read-out: AUC0-t (ng · h/mL) IV",1820 ng·h/mL
same,AUC(0-inf),"[4]; dog, in vivo, IV 1 mg/kg, read-out: AUC0-∞ (ng · h/mL) IV",2140 ng·h/mL
same,clearance,"[4]; dog, in vivo, IV 1 mg/kg, read-out: CL (iv) (converted)",8.1 mL/min/kg
same,Cmax,"[4]; dog, in vivo, IV 1 mg/kg, read-out: Cmax(ng/mL) IV",314 ng/mL
same,Tmax,"[4]; dog, in vivo, IV 1 mg/kg, read-out: Tmax (h) IV",0.083 h
same,Vd,"[4]; dog, in vivo, IV 1 mg/kg, read-out: Vss (iv)",10.8 L/kg
same,half-life,"[4]; dog, in vivo, IV 1 mg/kg, read-out: t1/2 (h) IV (converted)",19.7 h
same,AUC(0-t),"[4]; dog, in vivo, PO 5 mg/kg, read-out: AUC0-t (ng · h/mL) PO",2930 ng·h/mL
same,AUC(0-inf),"[4]; dog, in vivo, PO 5 mg/kg, read-out: AUC0-∞ (ng · h/mL) PO",3710 ng·h/mL
same,Cmax,"[4]; dog, in vivo, PO 5 mg/kg, read-out: Cmax(ng/mL) PO",239 ng/mL
same,Tmax,"[4]; dog, in vivo, PO 5 mg/kg, read-out: Tmax (h) PO",1.67 h
same,half-life,"[4]; dog, in vivo, PO 5 mg/kg, read-out: t1/2 (h) PO (converted)",20 h
same,V1180L (c),ALK V1180L,+ (c)
same,IC50,"ALK G1202R; Table 5, ATP 100 μM, read-out: IC50 (nM), G1202R",9.2 nM
same,pIC50,"ALK G1202R; Table 6, comparison with known ALK inhibitors, read-out: G1202R IC50",8.04
